Source: PubChem BioAssay (NCI)
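Results reflect a 48-hour exposure of cells in 96-well plates to compound at five concentrations. Abbreviation: GI50, concentration required for 50% inhibition of growth. The concentration for full growth arrest is given as TGI.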

Assays:
Assay in all cases: NCI anticancer screen, dose series, 48 h
[1] = system: KM12 colon
[2] = system: CCRF-CEM leukemia
[3] = system: COLO 205 colon
[4] = system: SR leukemia
[5] = system: MOLT-4 leukemia
[6] = system: SK-OV-3 ovarian
[7] = system: RPMI-8226 leukemia
[8] = system: MDA-MB-435
[9] = system: SF-295 CNS
[10] = system: DU-145 prostate
[11] = system: HL-60(TB) leukemia
[12] = system: NCI-H23 lung
[13] = system: HOP-92 NSCLC
[14] = system: SF-539 CNS
[15] = system: UACC-62 melanoma
[16] = system: TK-10 renal
[17] = system: M14 melanoma
[18] = system: T-47D breast
[19] = system: SW-620 colon
[20] = system: UO-31 renal
[21] = system: HS 578T breast
[22] = system: 786-0 renal
[23] = system: MDA-MB-231 breast
[24] = system: SK-MEL-28 melanoma
[25] = system: K-562 leukemia
[26] = system: U251 CNS
[27] = system: A549 NSCLC
[28] = system: SN12C renal
[29] = system: OVCAR-4 ovarian
[30] = system: NCI/ADR-RES ovarian
[31] = system: CAKI-1 renal
[32] = system: ACHN renal
[33] = system: SK-MEL-5 melanoma
[34] = system: SNB-75 CNS
[35] = system: MCF7 breast
[36] = system: UACC-257 melanoma
[37] = system: HCC-2998 colon
[38] = system: A498 renal
[39] = system: HCT-15 colon
[40] = system: NCI-H522 lung
[41] = system: PC-3 prostate
[42] = system: SK-MEL-2 melanoma
[43] = system: HT29 colon
[44] = system: OVCAR-3 ovarian
[45] = system: MALME-3M melanoma
[46] = system: OVCAR-5 ovarian
[47] = system: NCI-H460 lung

CCCCCCCCCCCCCC[n+]1ccccc1
GI50 [1]: 855 nM
TGI [1]: 2250 nM
GI50 [2]: 334 nM
TGI [2]: 1990 nM
GI50 [3]: 614 nM
TGI [3]: 2120 nM
GI50 [4]: 499 nM
TGI [4]: 2940 nM
GI50 [5]: 618 nM
TGI [5]: 2380 nM
GI50 [6]: 1450 nM
TGI [6]: 4260 nM
GI50 [7]: 303 nM
TGI [7]: 1330 nM
GI50 [8]: 549 nM
TGI [8]: 1870 nM
GI50 [9]: 900 nM
TGI [9]: 2620 nM
GI50 [10]: 1170 nM
TGI [10]: 2850 nM
GI50 [11]: 262 nM
TGI [11]: 838 nM
GI50 [12]: 507 nM
TGI [12]: 3020 nM
GI50 [13]: 144 nM
TGI [13]: 841 nM
GI50 [14]: 1280 nM
TGI [14]: 2600 nM
GI50 [15]: 960 nM
TGI [15]: 2340 nM
GI50 [16]: 491 nM
TGI [16]: 1810 nM
GI50 [17]: 459 nM
TGI [17]: 1980 nM
GI50 [18]: 486 nM
TGI [18]: 7540 nM
GI50 [19]: 779 nM
TGI [19]: 2590 nM
GI50 [20]: 1420 nM
TGI [20]: 4820 nM
GI50 [21]: 1590 nM
TGI [21]: 5130 nM
GI50 [22]: 1040 nM
TGI [22]: 2420 nM
GI50 [23]: 771 nM
TGI [23]: 2520 nM
GI50 [24]: 1310 nM
TGI [24]: 3030 nM
GI50 [25]: 357 nM
TGI [25]: 6250 nM
GI50 [26]: 426 nM
TGI [26]: 1770 nM
GI50 [27]: 1220 nM
TGI [27]: 2840 nM
GI50 [28]: 926 nM
TGI [28]: 2500 nM
GI50 [29]: 320 nM
TGI [29]: 2910 nM
GI50 [30]: 8650 nM
TGI [30]: 46800 nM
GI50 [31]: 833 nM
TGI [31]: 5430 nM
GI50 [32]: 1270 nM
TGI [32]: 6180 nM
GI50 [33]: 369 nM
TGI [33]: 1430 nM
GI50 [34]: 523 nM
TGI [34]: 2220 nM
GI50 [35]: 489 nM
TGI [35]: 2660 nM
GI50 [36]: 930 nM
TGI [36]: 3070 nM
GI50 [37]: 877 nM
TGI [37]: 2310 nM
GI50 [38]: 717 nM
TGI [38]: 3570 nM
GI50 [39]: 1900 nM
TGI [39]: 13200 nM
GI50 [40]: 923 nM
TGI [40]: 3370 nM
GI50 [41]: 204 nM
TGI [41]: 774 nM
GI50 [42]: 592 nM
TGI [42]: 2190 nM
GI50 [43]: 269 nM
TGI [43]: 1460 nM
GI50 [44]: 674 nM
TGI [44]: 2260 nM
GI50 [45]: 401 nM
TGI [45]: 1590 nM
GI50 [46]: 733 nM
TGI [46]: 2350 nM
GI50 [47]: 1220 nM
TGI [47]: 2730 nM
